Data on 24 compounds can be found in patent US7517874B2 (priority 2007, dated 2009).

The target of test [1] is human CB1 receptor (hCB1) (Homo sapiens, UniProt P21554). Nature of the test: cell-based. Type of test: cell-based. Particulars: for +/− HCB1: agonist or inverse agonist at hCB1. The procedure, abridged:
(§1)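 Readout: LANCE TR-FRET cAMP, back-calculated from a concurrent standard curve and scaled between forskolin-only and forskolin + 1 μM CP55,940 wells. EC50 and intrinsic activity came from four-parameter fits.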

The target in the next test is T1, rat CB2 receptor (rCB2) (Rattus norvegicus, UniProt Q9QZN9).
T1 sequence (Q9QZN9 1-360): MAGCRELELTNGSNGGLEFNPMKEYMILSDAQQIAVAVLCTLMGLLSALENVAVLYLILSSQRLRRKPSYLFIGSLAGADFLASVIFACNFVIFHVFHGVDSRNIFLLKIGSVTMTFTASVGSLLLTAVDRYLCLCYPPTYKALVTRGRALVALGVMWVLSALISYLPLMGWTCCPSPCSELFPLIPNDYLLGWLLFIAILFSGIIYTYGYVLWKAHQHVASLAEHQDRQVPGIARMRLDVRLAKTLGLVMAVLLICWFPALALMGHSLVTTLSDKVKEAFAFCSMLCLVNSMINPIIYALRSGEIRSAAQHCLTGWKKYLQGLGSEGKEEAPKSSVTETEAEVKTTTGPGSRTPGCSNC
Nature of the test: cell-based. Type of test: cell-based. The conditions noted are these: for +/− RCB2: agonist or inverse agonist at rCB2. The procedure, abridged:
as §1

Like-named read-outs stand apart in the source and are kept apart here.

human CB1 receptor (hCB1), sequence (P21554 whole entry): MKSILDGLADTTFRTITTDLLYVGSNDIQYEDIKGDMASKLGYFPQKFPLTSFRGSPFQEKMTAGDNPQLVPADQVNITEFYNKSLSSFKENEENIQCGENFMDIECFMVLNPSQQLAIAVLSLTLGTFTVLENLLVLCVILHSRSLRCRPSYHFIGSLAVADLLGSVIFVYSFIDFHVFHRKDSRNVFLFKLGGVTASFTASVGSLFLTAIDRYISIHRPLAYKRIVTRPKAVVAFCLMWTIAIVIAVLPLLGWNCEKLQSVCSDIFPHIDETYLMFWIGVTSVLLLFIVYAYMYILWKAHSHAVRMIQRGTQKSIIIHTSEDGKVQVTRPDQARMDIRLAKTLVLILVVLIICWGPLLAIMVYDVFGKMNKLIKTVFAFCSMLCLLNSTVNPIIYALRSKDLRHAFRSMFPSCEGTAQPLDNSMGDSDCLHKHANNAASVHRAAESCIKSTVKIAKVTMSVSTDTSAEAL

Take `C=Cc1nc(C(=O)N[C@H](C(=O)NC)C(C)(C)C)c2n1CCCN(C)C2` [Compound 430, (S)-N-(3,3-dimethyl-1-(methylamino)-1-oxobutan-2-yl)-8-methyl-3-vinyl-6,7,8,9-tetrahydro-5H-imidazo[1,5-a][1,4]diazepine-1-carboxamide]: in test [1], the EC50 (usually the midpoint of the concentration-response curve) was more than 10000 nM. The “+/− RCB2” value at rat CB2 receptor (rCB2) is listed as “+”.

Turning to `CC(C)C[C@H](NC(=O)c1nc(-c2cc(F)ccc2F)n2c1CN(C)CCC2)C(N)=O` [Compound 567, (S)-N-(1-amino-4-methyl-1-oxopentan-2-yl)-3-(2,5-difluorophenyl)-8-methyl-6,7,8,9-tetrahydro-5H-imidazo[1,5-a][1,4]diazepine-1-carboxamide], in test [1], the EC50 is more than 10000 nM. At rat CB2 receptor (rCB2), the “+/− RCB2” value was “+”.

On to `CNC(=O)[C@@H](NC(=O)c1nc(-c2ccccc2C(N)=O)n2c1CN(C)CCC2)C(C)(C)C` [Compound 431, (S)-3-(2-carbamoylphenyl)-N-(3,3-dimethyl-1-(methylamino)-1-oxobutan-2-yl)-8-methyl-6,7,8,9-tetrahydro-5H-imidazo[1,5-a][1,4]diazepine-1-carboxamide], for which the EC50 in test [1] is more than 10000 nM; at rat CB2 receptor (rCB2), more than 10 µM.

Take `CNC(=O)[C@@H](NC(=O)c1nc(-c2ccccc2F)n2c1CN(C)CCC2)C(C)(C)C` [Compound 353, (S)-N-(3,3-dimethyl-1-(methylamino)-1-oxobutan-2-yl)-3-(2-fluorophenyl)-8-methyl-6,7,8,9-tetrahydro-5H-imidazo[1,5-a][1,4]diazepine-1-carboxamide]: the EC50 in test [1] is more than 10000 nM. Also, at rat CB2 receptor (rCB2), the “+/− RCB2” value is reported as “+”.

In turn, `C=C(c1nc(C(=O)N[C@H](C(=O)NC)C(C)(C)C)c2n1CCCN(C)C2)C(F)(F)F` [Compound 453, (S)-N-(3,3-dimethyl-1-(methylamino)-1-oxobutan-2-yl)-8-methyl-3-(3,3,3-trifluoroprop-1-en-2-yl)-6,7,8,9-tetrahydro-5H-imidazo[1,5-a][1,4]diazepine-1-carboxamide] yielded an EC50 in test [1] of more than 10000 nM. The “+/− RCB2” value at rat CB2 receptor (rCB2) was “+”.

Compound `CNC(=O)[C@@H](NC(=O)c1nc(-c2cccc(-c3ccccc3)c2)n2c1CN(C)CCC2)C(C)(C)C` [Compound 383, (S)-3-(biphenyl-3-yl)-N-(3,3-dimethyl-1-(methylamino)-1-oxobutan-2-yl)-8-methyl-6,7,8,9-tetrahydro-5H-imidazo[1,5-a][1,4]diazepine-1-carboxamide] returned an EC50 in test [1] of more than 10000 nM. Also, the “+/− RCB2” value at rat CB2 receptor (rCB2) was “−”.

The compound `CNC(=O)[C@@H](NC(=O)c1nc(-c2ccc(F)c(Cl)c2)n2c1CN(C)CCC2)C(C)(C)C` [Compound 372, (S)-3-(3-chloro-4-fluorophenyl)-N-(3,3-dimethyl-1-(methylamino)-1-oxobutan-2-yl)-8-methyl-6,7,8,9-tetrahydro-5H-imidazo[1,5-a][1,4]diazepine-1-carboxamide] had an EC50 in test [1] of more than 10000 nM. For the same compound, the “+/− RCB2” value on rat CB2 receptor (rCB2) is “+”.

`CNC(=O)[C@@H](NC(=O)c1nc(-c2cc(C)ccc2F)n2c1CN(C)CCC2)C(C)(C)C` [Compound 362, (S)-N-(3,3-dimethyl-1-(methylamino)-1-oxobutan-2-yl)-3-(2-fluoro-5-methylphenyl)-8-methyl-6,7,8,9-tetrahydro-5H-imidazo[1,5-a][1,4]diazepine-1-carboxamide] had an EC50 in test [1] of more than 10000 nM. For the same compound, the “+/− RCB2” value on rat CB2 receptor (rCB2) is “+”.

Compound `CC(C)(C)OC(=O)N1CCn2c(-c3ccccc3)nc(C(=O)NC3C4(C)CCC(C4)C3(C)C)c2C1` (stereo not drawn) [Compound 30, tert-butyl 3-phenyl-1-(1,3,3-trimethylbicyclo[2.2.1]heptan-2-ylcarbamoyl)-5,6-dihydroimidazo[1,5-a]pyrazine-7(8H)-carboxylate] displayed an EC50 in test [1] of more than 10000 nM. Also, at rat CB2 receptor (rCB2), the “+/− RCB2” value was “−”.

Consider `CNC(=O)[C@@H](NC(=O)c1nc(-c2cc(Cl)c(C)cc2F)n2c1CN(C)CCC2)C(C)(C)C` [Compound 357, (S)-3-(5-chloro-2-fluoro-4-methylphenyl)-N-(3,3-dimethyl-1-(methylamino)-1-oxobutan-2-yl)-8-methyl-6,7,8,9-tetrahydro-5H-imidazo[1,5-a][1,4]diazepine-1-carboxamide], for which the EC50 in test [1] is more than 10000 nM; at rat CB2 receptor (rCB2) it was more than 10 µM.

In test [1], `COC(=O)[C@@H](NC(=O)c1nc(-c2ccc(C)cc2F)n2c1CNCCC2)C(C)(C)C` [Compound 466] showed an EC50 of more than 10000 nM. The “+/− RCB2” value at rat CB2 receptor (rCB2) is reported as “−”.

In test [1], `CNC(=O)[C@@H](NC(=O)c1nc(-c2cccs2)n2c1CNCC2)C(C)(C)C` [Compound 16, (S)-N-(3,3-dimethyl-1-(methylamino)-1-oxobutan-2-yl)-3-(thiophen-2-yl)-5,6,7,8-tetrahydroimidazo[1,5-a]pyrazine-1-carboxamide] had an EC50 of more than 10000 nM. Besides, on rat CB2 receptor (rCB2), the “+/− RCB2” value was “+”.

In test [1], `C[C@@H](NC(=O)c1nc(-c2ccccc2)n2c1CN(CCO)CC2)C1CCCCC1` [Compound 140, (R)-N-(1-cyclohexylethyl)-7-(2-hydroxyethyl)-3-phenyl-5,6,7,8-tetrahydroimidazo[1,5-a]pyrazine-1-carboxamide] yielded an EC50 of more than 10000 nM. For the same compound, the “+/− RCB2” value on rat CB2 receptor (rCB2) is given as “−”.

`CNC(=O)[C@@H](NC(=O)c1nc(-c2ccc(N3CCOCC3)cc2)n2c1CN(C)CCC2)C(C)(C)C` [Compound 378, (S)-N-(3,3-dimethyl-1-(methylamino)-1-oxobutan-2-yl)-8-methyl-3-(4-morpholinophenyl)-6,7,8,9-tetrahydro-5H-imidazo[1,5-a][1,4]diazepine-1-carboxamide] displayed an EC50 in test [1] of more than 10000 nM. Also, on rat CB2 receptor (rCB2), the “+/− RCB2” value is “−”.

For the compound `CNC(=O)[C@H](C)NC(=O)c1nc(-c2ccccc2)n2c1CN(Cc1cncnc1)CC2` [Compound 77, (S)-N-(1-(methylamino)-1-oxopropan-2-yl)-3-phenyl-7-(pyrimidin-5-ylmethyl)-5,6,7,8-tetrahydroimidazo[1,5-a]pyrazine-1-carboxamide], the EC50 in test [1] is more than 10000 nM; at rat CB2 receptor (rCB2), more than 10 µM.

In test [1], `CNC(=O)[C@@H](NC(=O)c1nc(C2CC2)n2c1CN(C)CCC2)C(C)(C)C` [Compound 435, (S)-3-cyclopropyl-N-(3,3-dimethyl-1-(methylamino)-1-oxobutan-2-yl)-8-methyl-6,7,8,9-tetrahydro-5H-imidazo[1,5-a][1,4]diazepine-1-carboxamide] displayed an EC50 of more than 10000 nM. The “+/− RCB2” value on rat CB2 receptor (rCB2) is on record as “+”.

In the case of `CN1CCCn2c(-c3cc(F)ccc3F)nc(C(=O)N[C@@H](CC(C)(C)C)C(N)=O)c2C1` [Compound 583, (S)-N-(1-amino-4,4-dimethyl-1-oxopentan-2-yl)-3-(2,5-difluorophenyl)-8-methyl-6,7,8,9-tetrahydro-5H-imidazo[1,5-a][1,4]diazepine-1-carboxamide], the “+/− HCB1” value in test [1] is reported as “+”. The “+/− RCB2” value on rat CB2 receptor (rCB2) was “+”.

On to `CNC(=O)[C@@H](NC(=O)c1nc(C2=CCCCCC2)n2c1CN(C)CC2)C(C)(C)C` [Compound 272, (S,E)-3-cycloheptenyl-N-(3,3-dimethyl-1-(methylamino)-1-oxobutan-2-yl)-7-methyl-5,6,7,8-tetrahydroimidazo[1,5-a]pyrazine-1-carboxamide], for which the “+/− HCB1” value in test [1] is on record as “+”. The “+/− RCB2” value at rat CB2 receptor (rCB2) is “+”.

For `CNC(=O)c1cccc(NC(=O)c2nc(-c3ccc(Cl)cc3F)n3c2CN(C)CC3)c1` [Compound 216, 3-(4-chloro-2-fluorophenyl)-7-methyl-N-(3-(methylcarbamoyl)phenyl)-5,6,7,8-tetrahydroimidazo[1,5-a]pyrazine-1-carboxamide], in test [1] (groups >100 nM-10 μM and >10 μM, cAMP, CHO-K1 hCB1, read-out: EC50 HCB1), the EC50 was more than 10000 nM. The “+/− RCB2” value at rat CB2 receptor (rCB2) is reported as “−”.

`COC(=O)N1CCn2c(-c3ccccc3)nc(C(=O)N[C@H](C)C3CCCCC3)c2C1` [Compound 185, (R)-methyl 1-(1-cyclohexylethylcarbamoyl)-3-phenyl-5,6-dihydroimidazo[1,5-a]pyrazine-7(8H)-carboxylate]: the EC50 in test [1] was more than 10000 nM. The “+/− RCB2” value on rat CB2 receptor (rCB2) is reported as “−”.

On to `CNC(=O)[C@@H](NC(=O)c1nc(-c2ccc(C(F)(F)F)cc2)n2c1CN(C)CCC2)C(C)(C)C` [Compound 330, (S)-N-(3,3-dimethyl-1-(methylamino)-1-oxobutan-2-yl)-8-methyl-3-(4-(trifluoromethyl)phenyl)-6,7,8,9-tetrahydro-5H-imidazo[1,5-a][1,4]diazepine-1-carboxamide], for which the EC50 in test [1] was more than 10000 nM. For the same compound, at rat CB2 receptor (rCB2), the “+/− RCB2” value is “−”.

`CNC(=O)[C@@H](NC(=O)c1nc(-c2ccccc2)n2c1CN(C(C)=O)CC2)C(C)(C)C` [Compound 174, (S)-7-acetyl-N-(3,3-dimethyl-1-(methylamino)-1-oxobutan-2-yl)-3-phenyl-5,6,7,8-tetrahydroimidazo[1,5-a]pyrazine-1-carboxamide]: the EC50 in test [1] was more than 10000 nM. In addition, the “+/− RCB2” value on rat CB2 receptor (rCB2) is “+”.

As for `CNC(=O)[C@@H](NC(=O)c1nc(-c2ccccc2)n2c1CN(Cc1nccs1)CC2)C(C)(C)C` [Compound 72, (S)-N-(3,3-dimethyl-1-(methylamino)-1-oxobutan-2-yl)-3-phenyl-7-(thiazol-2-ylmethyl)-5,6,7,8-tetrahydroimidazo[1,5-a]pyrazine-1-carboxamide], the EC50 is more than 10000 nM in test [1] and more than 10 µM on rat CB2 receptor (rCB2).

In turn, `C[C@H](NC(=O)c1nc(-c2ccccc2)n2c1CN(C(=O)C1CC1)CC2)c1ccccc1` [Compound 124, (S)-7-(cyclopropanecarbonyl)-3-phenyl-N-(1-phenylethyl)-5,6,7,8-tetrahydroimidazo[1,5-a]pyrazine-1-carboxamide] returned an EC50 in test [1] of more than 10000 nM. Besides, the “+/− RCB2” value on rat CB2 receptor (rCB2) is “−”.
